Reference: patent US20210246115A1 (Bioimics AB, priority 2017, published 2021)
≈ marks a conversion by molar mass, not a printed value. Structures can show the parent of a compound that is named as a salt. Where two headings read alike, the source gives them in different places.

What was measured:
[1] = test system: E. coli RNase P RNA, M1 RNA; assay: Inhibition of bacterial RNase P activity, IC50 determination (cleavage of pATSerUG by M1 RNA); type: biochemical; settings: NI: No inhibition
[2] = test system: Escherichia coli (ATCC25922); assay: MIC, broth microdilution (CLSI), Escherichia coli; settings: Escherichia coli, ATCC25922, read-out: E. coli ATCC 25922 MIC, Table XIII
[3] = test system: Staphylococcus aureus subsp. aureus (ATCC29213); assay: MIC, broth microdilution (CLSI), Staphylococcus aureus ATCC29213; type: cell-based; settings: Staphylococcus aureus
[4] = ATCC29213, Table XIII, read-out: S. aureus ATCC 29213 MIC
[5] = ATCC29213, read-out: S. aureus ATCC 29213 MIC, Table XIII

SMILES	IC50 [1] [µM]	MIC [2] [µg/mL]	MIC [3, 4] [µg/mL]	MIC [3, 5] [µg/mL]
Cl.Cl.NCCCNCCC(c1ccccc1)c1cn(C2CCCCC2)c2ccccc12 (stereo not drawn) [Compound 343, N1-(3-(1-cyclohexyl-1H-indol-3-yl)-3-phenylpropyl) propane-1,3-diamine hydrochloride salt]	64	4	8	
c1cncc(C(CCNC2CCNCC2)c2cn(C3CC4CCC3C4)c3ccccc23)c1 (stereo not drawn) [Compound 325, hydrochloride salt]		64		64
Cc1cccc(C(CCNCCCN)c2cn(CC3CCOCC3)c3ccc(C#N)cc23)c1 (stereo not drawn) [Compound 318, 3-(3-((3-aminopropyl)amino)-1-(m-tolyl)propyl)-1-((tetrahydro-2H-pyran-4-yl)methyl)-1H-indole-5-carbonitrile hydrochloride salt]		> 128		64
COc1cccc(C(CCNC2CCNCC2)c2cn(C3CCCCC3)c3ccc(C#N)cc23)c1 (stereo not drawn) [Compound 401, 1-cyclohexyl-3-(1-(3-methoxyphenyl)-3-(piperidin-4-ylamino)propyl)-1H-indole-5-carbonitrile hydrochloride salt]		16		16
Cc1cccc(C(CCNCCN)c2cn(C3CCCCC3)c3ccccc23)c1.Cl.Cl (stereo not drawn) [Compound 347, N1-(3-(1-cyclohexyl-1H-indol-3-yl)-3-(m-tolyl)propyl)ethane-1,2-diamine hydrochloride salt]		16	8	
CC(=O)N1CCC(N(CCC(c2cccc(C)c2)c2cn(C3CCCCC3)c3ccccc23)C(C)=O)CC1 (stereo not drawn) [Compound 354, N-(1-acetylpiperidin-4-yl)-N-(3-(1-cyclohexyl-1H-indol-3-yl)-3-(m-tolyl)propyl)acetamide salt]		> 128	128	
Cl.Cl.NC1CCC(NCCC(c2cccnc2)c2cn(C3CCCCC3)c3ccccc23)CC1 (stereo not drawn) [Compound 330, N1-(3-(1-cyclohexyl-1H-indol-3-yl)-3-(pyridin-3-yl)propyl)cyclohexane-1,4-diamine hydrochloride salt]		> 128	64	
Cl.Cl.N[C@H]1CC[C@H](NCCC(c2ccncc2)c2cn(C3CCCCC3)c3ccccc23)CC1 (stereo partly drawn) [Compound 340, (1r,4r)-N1-(3-(1-cyclohexyl-1H-indol-3-yl)-3-(pyridin-4-yl)propyl) cyclohexane-1,4-diamine hydrochloride salt]		128	64	
Cc1cccc(C(CCNC2CCC(N)CC2)c2cn(CC3CCOCC3)c3ccc(C#N)cc23)c1 (stereo not drawn) [Compound 312, 3-(3-((4-aminocyclohexyl)amino)-1-(m-tolyl)propyl)-1-((tetrahydro-2H-pyran-4-yl)methyl)-1H-indole-5-carbonitrile hydrochloride salt]		64		32
Cl.Cl.NCCCNCCC(c1cccnc1)c1cn(CC2CCCCC2)c2ccccc12 (stereo not drawn) [Compound 321, N1-(3-(1-(cyclohexylmethyl)-1H-indol-3-yl)-3-(pyridin-3-yl)propyl)propane-1,3-diamine hydrochloride salt]		64	32	
Cc1cccc(C(CCNCC2OC(CO)C(O)C(O)C2O)c2cn(C3CCCCC3)c3ccccc23)c1 (stereo not drawn) [Compound 391, 2-(((3-(1-cyclohexyl-1H-indol-3-yl)-3-(m-tolyl)propyl)amino)methyl)-6-(hydroxymethyl) tetrahydro-2H-pyran-3,4,5-triol]		128 (≈ 245 µM)		64 (≈ 122 µM)
Cl.Cl.NCCCNCCC(c1cccnc1)c1cn(C2CCCCC2)c2ccccc12 (stereo not drawn) [Compound 331, N1-(3-(1-cyclohexyl-1H-indol-3-yl)-3-(pyridin-3-yl)propyl)propane-1,3-diamine hydrochloride salt]		128	32	
COc1cccc(C(CCNCCCN)c2cn(C3CCCCC3)c3ccc(C#N)cc23)c1 (stereo not drawn) [Compound 402, 3-(3-((3-aminopropyl)amino)-1-(3-methoxyphenyl)propyl)-1-cyclohexyl-1H-indole-5-carbonitrile hydrochloride salt]		16		8
Cl.Cl.c1ccc2c(c1)c(C(CCNC1CCNCC1)c1ccncc1)cn2C1CC2CCC1C2 (stereo not drawn) [Compound 337, N-(3-(1-(bicyclo[2.2.1]heptan-2-yl)-1H-indol-3-yl)-3-(pyridin-4-yl)propyl)piperidin-4-amine hydrochloride salt]		64	32	
Cc1cccc(C(CCNCC2CNCCO2)c2cn(C3CCCCC3)c3ccc(Br)cc23)c1 (stereo not drawn) [Compound 405, 3-(5-bromo-1-cyclohexyl-1H-indol-3-yl)-N-(morpholin-2-ylmethyl)-3-(m-tolyl)propan-1-amine hydrochloride salt]		16		8
Cl.Cl.NCCCNCCC(c1ccncc1)c1cn(C2CC3CCC2C3)c2ccccc12 (stereo not drawn) [Compound 338, N1-(3-(1-(bicyclo[2.2.1]heptan-2-yl)-1H-indol-3-yl)-3-(pyridin-4-yl)propyl)propane-1,3-diamine hydrochloride salt]		128	64	
Cc1cccc(C(CCNC2CCNCC2)c2cn(CC3CCNCC3)c3ccccc23)c1 (stereo not drawn) [Compound 315, N-(3-(1-(piperidin-4-ylmethyl)-1H-indol-3-yl)-3-(m-tolyl)propyl) piperichn-4-amine hydrochloride salt]		> 128		64

More lines, main results first:

IC50 [1] [µM]	MIC [2] [µg/mL]	MIC [3, 4] [µg/mL]	SMILES	MIC [3, 5] [µg/mL]
21	8	4	Cc1cccc(CC(CCNC2CCC(N)CC2)c2cn(C3CCCCC3)c3ccccc23)c1.Cl.Cl [Compound 408, (1R,4R)-N1-(3-(1-cyclohexyl-1H-indol-3-yl)-4-(m-tolyl)butyl)cyclohexane-1,4-diamine hydrochloride salt]	
8.3	4	4	Cc1ccccc1-c1ccc2c(c1)c(CCCNCCCN)cn2C1CCCCC1.Cl.Cl [Compound 362, N1-(3-(1-cyclohexyl-5-(o-tolyl)-1H-indol-3-yl)propyl)propane-1,3-diamine hydrochloride salt]	
	> 128	128 (≈ 286 µM)	Cc1cccc(C(CCNCCCN)c2cn(C3CCCCC3)c3ccc(C(=O)O)cc23)c1 (stereo not drawn) [Compound 387, 3-(3-((3-aminopropyl)amino)-1-(m-tolyl)propyl)-1-cyclohexyl-1H-indole-5-carboxylic acid compound with 2,2,2-trifluoroacetaldehyde (1:2)]	
	8	8	Cl.Cl.NCCCNCCC(c1cncc2ccccc12)c1cn(C2CCCCC2)c2ccccc12 (stereo not drawn) [Compound 369, N1-(3-(1-cyclohexyl-1H-indol-3-yl)-3-(isoquinolin-4-yl)propyl)propane-1,3-diamine hydrochloride]	
	> 128	8	Cc1cccc(C(CCOCCCN(C)C)c2cn(C3CCCCC3)c3ccccc23)c1 (stereo not drawn) [Compound 364, 3-(3-(1-cyclohexyl-1H-indol-3-yl)-3-(m-tolyl)propoxy)-N,N-dimethylpropan-1-amine salt]	
	> 128	16 (≈ 31.4 µM)	Cc1cccc(C(CCOC2OC(CO)C(O)C(O)C2O)c2cn(C3CCCCC3)c3ccccc23)c1 (stereo not drawn) [Compound 388, 2-(3-(1-cyclohexyl-1H-indol-3-yl)-3-(m-tolyl)propoxy)-6-(hydroxymethyl) tetrahydro-2H-pyran-3,4,5-triol]	
	> 128	64 (≈ 140 µM)	Cc1cccc(C(CCNCCCN2CCCC2)c2cn(C3CCCCC3)c3ccccc23)c1 (stereo not drawn) [Compound 367, 3-(1-cyclohexyl-1H-indol-3-yl)-N-(3-(pyrrolidin-1-yl)propyl)-3-(m-tolyl)propan-1-amine]	
